# In patent US4537719A, “4-Methylsulfonyl-azetidinone derivatives” (Ajinomoto Company Incorporated, priority 1981, dated 1985):
# Target: T1, β-lactamase (Enterobacter cloacae, UniProt P05364)
# T1 construct: obtained by destruction of the microbial cells with ultrasonic waves; endogenous in cells
# Experiment: β-lactamase inhibition (iodometric absorbance at 575 nm; β-lactamase solution obtained by ultrasonic destruction of microbial cells)
# Type: biochemical
# Conditions: Enterobacter cloacae used as the β-lactamase-producing microorganism; pH 7.0, 30° C., 20 minutes; sample concentration not given
# Description: A phosphate buffer solution (pH 7.0, 0.5M, 0.2 ml), a sample*, which is a β-lactamase inhibiting agent, dissolved in the same buffer solution as mentioned above, and water (10 ml) were put in a test tube. In this tube, ampicillin (2 mM, 0.2 ml) in the case of penicillinase, and cephaloridine (2 mM, 0.2 ml) in the case of cephalosporinase, were added. This mixture was stirred moderately for 5 minutes at 30° C. in a thermostat. Microbial cells producing β-lactamase were collected, washed and suspended in the same buffer solution as above and thereto a β-lactamase solution (0.1 ml) obtained by destruction of the microbial cells with ultrasonic waves was added and reacted for 20 minutes.
# The reaction was stopped by adding sodium tungstate (0.15M, pH 4.0, 1 ml) and an iodo reagent (3 ml) having iodine (0.1 mM), potassium iodide (1.6 mM) and 0.4% starch solution, (pH 6.0) was added thereto and was allowed to stand for 20 minutes. The absorbance was determined at 575 nm.
# On the other hand, the same experiment as above without the sample (Control) was carried out and the absorbances were determined in the same manner as above.
# From each determined value as obtained above, the difference between the absorbance of the blank and that of the sample, referred to as As, and the difference between the absorbance of the blank and that of the Control referred to as AB were obtained, and therefrom the inhibiting ratio was calculated by the following equation:
# Inhibiting Ratio(%)=(AS/AB)×100
# Some of the results as obtained above, in which Enterobacter cloacae was used as the β-lactamase-producing microorganism was used are as follows: […]
# T1 sequence (P05364 21-381): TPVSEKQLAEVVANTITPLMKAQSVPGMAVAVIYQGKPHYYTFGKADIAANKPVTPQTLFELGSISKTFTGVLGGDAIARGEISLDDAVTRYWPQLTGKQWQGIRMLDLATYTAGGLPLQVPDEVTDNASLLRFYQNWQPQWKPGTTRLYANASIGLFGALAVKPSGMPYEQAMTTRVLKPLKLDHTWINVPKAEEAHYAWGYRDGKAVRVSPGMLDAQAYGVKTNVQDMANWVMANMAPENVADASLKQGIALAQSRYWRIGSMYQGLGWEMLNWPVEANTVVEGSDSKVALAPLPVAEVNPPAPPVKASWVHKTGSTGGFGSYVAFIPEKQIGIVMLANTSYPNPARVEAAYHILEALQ
row,Compound,Inhibiting Ratio (%)
1,"CC(C)=C(C(=O)O)N1C(=O)[C@@H](NC(=O)[C@H](N)c2ccccc2)[C@H]1S(C)(=O)=O [Sample 3, (3R,4R)-1-(1-carboxy-2-methylprope-1-nyl)-4-methylsulfonyl-3-[D-(-)-α-aminophenylacetamide]-2-azetidinone]",27.6
2,"COC(=O)C(C(=O)O)N1C(=O)CC1SC (stereo not shown) [Sample 1, 1-(1-carboxy-1-methyoxycarbonylmethyl)-4-methylthio-2-azetidinone]",46.2
3,"COC(=O)C(C(=O)O)N1C(=O)CC1S(C)(=O)=O (stereo not shown) [Sample 2, 1-(1-carboxy-1-methoxycarbonylmethyl)-4-methylsulfonyl-2-azetidinone]",51.4
4,"CC(C)=C(C(=O)O)N1C(=O)[C@@H](N)[C@H]1S(C)(=O)=O [Sample 4, (3R, 4R)-1-(1-carboxy-2-methylprope-1-nyl)-4-methylsulfonyl-3-amino-2-azetidinone]",35.8
